The values below are quoted from earlier work in patent US20030004177A1, “Abuse-resistant opioid dosage form” (Endo Pharmaceuticals, Inc., priority 2001, published 2003).

Each structure is given as a SMILES string. Like-named read-outs stand apart in the source and are kept apart here.

The test system of one data set is opioid effect. Particulars: injection or intranasal administration.

On to `C=CCN1CC[C@]23c4c5ccc(O)c4O[C@H]2C(=O)CC[C@@]3(O)[C@H]1C5` [naloxone], for which the “amount needed to antagonize the opioid effect, to induce abstinence in dependent individuals, and to prevent abuse” value with opioid effect is 0.2 to 0.4 mg. Besides, the bioavailability entry is on record as “very low” (administered orally) and “high” (administered parenterally).
